Measured values: publication PMC8507746, “The FHP01 DDX3X Helicase Inhibitor Exerts Potent Anti-Tumor Activity In Vivo in Breast Cancer Pre-Clinical Models” (Cancers, 2021)

Key:
phospho-β-catenin = assay: Western blot of phospho-β-catenin in MDA MB 231 cells; assay type: cell-based, human; conditions: MDA MB 231, 1 μM, 16 hrs; vehicle = 1.00
Description: Cells (1 × 10^5) were seeded in 6-well plates. After 24 h, cells were treated for indicated times with DMSO (vehicle) or FHP01 or XAV939 (Merck). After treatments, cells were washed with cold PBS and total protein extracts obtained by adding 80 µL of “RIPA Lysis buffer” (50 mM Tris-HCl pH 8.0, 150 mM NaCl, 0.5% Sodium deoxycholate, 0.1% SDS, 1% NP-40, 2 mM Orthovanadate, 2mM Sodium fluoride, 1mM Dithiothreitol and 1× protease inhibitors). After mechanicals detachment with cell scrapers, total lysates were collected in tubes, vortexed, and incubated for 15 min on ice. Tumors from mice were collected and disrupted by bead homogenization in Lysing Matrix D tubes using a FastPrep-24 5G homogenizer (MP Biomedicals, Solon, OH, USA) filled with “RIPA Lysis buffer” w:v. Next, samples were centrifuged for 10 min at 16,000× g, and supernatants were collected, representing total cell lysates.
Densitometric analysis of western blots was performed with NIH Image J (National Institutes of Health).

[1] = test system: WNT signaling (TCF/LEF transcriptional activity); assay: TCF/LEF luciferase reporter assay (WNT1/WNT3A) in MDA MB 231 cells; assay type: cell-based, human; conditions: MDA MB 231, WNT1/WNT3A, 1 μM, 16 hrs
Description: MDA MB 231 cells were seeded at 3 × 10^4 cells/well density in 12-well plates, in triplicate, and transfected with 250 ng of the M50 Super 8× TOPFlash reporter vector (Addgene Plasmid #12456) and 1 μg of expression vectors inducing the WNT pathway (Wnt1-V5, Addgene plasmid #43807, and Wnt3A-V5, Addgene plasmid #43810). Eight hours after transfection, cells were treated with FHP01, XAV939 (Merck, Kenilworth, NJ, USA) or DMSO for indicated times prior to lysis in Passive Lysis Buffer (Promega, Madison, WI, USA). Luciferase activity in cellular lysates was assessed on a Glomax 20/20 luminometer (Promega) using the Luciferase Assay System (Promega). Results were normalized for GFP expression, upon transfection with GFP coding vector (1 μg). Representative results from 3 independent experiments are shown (n = 3). Error bars represent the Standard Error of the Mean. All samples were read at least in triplicate.

SMILES: Oc1nc(-c2ccc(C(F)(F)F)cc2)nc2c1CSCC2 [XAV939, reference compound]
- Phospho-β-catenin : ERK2 (phospho-β-catenin): 2.64
- TCF/LEF-dependent transcription [1]: efficient attenuation
